What was measured:
Type in all cases: cell-based
[1] = tested on: human lung fibroblast CCD8-Lu cells; assay: Quantitative real-time PCR of fibrosis genes in TGF-β-treated CCD8-Lu fibroblasts; details: qRT-PCR, 10 μg mitochondria or 1 μM nintedanib, 18 hours after 6 hours TGF-β
Experimental: (§1) In order to analyze the anti-fibrotic activity of mitochondria, a cell-based analysis experiment was performed using a quantitative real-time polymerase chain reaction.
(§2) CCD8-Lu cells and Wi-38 cells, which are human lung-derived fibroblasts, were cultured in DMEM medium containing 10% FBS, respectively. The cells were inoculated into a 6 well plate at about 2×10^5 cells/well and cultured for 24 hours, and then depletion conditions were performed in DMEM medium without FBS for about 24 hours. After 24 hours, the cells were treated with TGF-β at a concentration of 2.5 ng/mL, and then fibrosis of the cells was induced for 6 hours. After 6 hours, the cells were washed twice with PBS to completely remove the remaining TGF-β. Next, the mitochondria isolated from HEK293, UC-MSC and BM-MSC cells in Preparation Example 1 were mixed in DMEM medium, and the cells were treated with the mitochondria and then further cultured for 18 hours (FIG. 1). At this time, the negative control group was not treated with anything, the positive control group was treated with TGF-β alone at a concentration of 5 ng/mL, and the experimental groups were treated with 10 μg of mitochondria isolated from each cell, respectively. […]
(§3) After 18 hours of mitochondria treatment, the culture solution was removed, and the cells were washed twice with a PBS buffer solution, and 0.5 mL of RNA extract (Trizol reagent, Thermo Fisher Scientific) was added directly and then stood at ambient temperature for 10 minutes. […] After drying, about 50 μl of purified RNAase-free distilled water was added, and the quantity and purity of the obtained RNA was measured using a spectrophotometer. […]
Changes in the expression of the alpha actin smooth muscle (α-SMA) gene, a characteristic gene of myofibroblast, the CCN2 (or CTGF) gene, a characteristic gene of fibrosis, fibronectin, a characteristic gene of fibrosis, and the NOX-4 gene, a characteristic gene of fibrosis, were observed by quantitative real-time polymerase chain reaction. The GAPDH gene was quantified together to calibrate for differences in the expression.

[2] = tested on: human lung fibroblast Wi-38 cells; assay: Quantitative real-time PCR of fibrosis genes in TGF-β-treated Wi-38 fibroblasts; details: qRT-PCR, 10 μg mitochondria or 1 μM nintedanib, 18 hours after 6 hours TGF-β
Experimental: as §1
as §2, with “1).” for “1). At this time, the negative control group was not treated with anything, the positive control group was treated with TGF-β alone at a concentration of 5 ng/mL, and the experimental groups were treated with 10 μg of mitochondria isolated from each cell, respectively.”
as §3

[3] = tested on: human lung fibroblast CCD8-Lu cells; assay: Western blotting of CTGF expression (FIG. 6); details: western blotting (FIG. 6), 5 μg mitochondria, 18 hours after 6 hours 2.5 ng/mL TGF-β
Experimental: In order to observe whether the expression of CTGF, a key gene for fibrosis, is regulated by mesenchymal stem cell-derived mitochondria, a cell-based analysis experiment was performed using a Western analysis method.
CCD8-Lu cells (FIG. 6A) and Wi-38 cells (FIG. 6B), which are human lung-derived fibroblasts, were cultured in DMEM medium containing 10% FBS. The cells were inoculated into a 6 well plate at about 2×10^5 cells/well and cultured for 24 hours, and then depletion conditions were performed in DMEM medium without FBS for about 24 hours.
After 24 hours, the cells were treated with TGF-β at a concentration of 2.5 ng/mL, and then fibrosis of the cells was induced for 6 hours. After 6 hours, the cells were washed twice with PBS to completely remove TGF-β. Next, in the same manner as in Preparation Example 1, the mitochondria isolated from UC-MSC and HEK293 cells were mixed in DMEM medium, and the cells were treated with the mitochondria and then further cultured for 18 hours (FIG. 3). […]
The separated supernatant was obtained and transferred to a new microtube, and then protein was quantified using the BCA analysis method. […]

[4] = tested on: human lung fibroblast CCD8-Lu cells; assay: Cell immunochemical staining of collagen 1A and fibronectin (FIG. 5); details: immunostaining (FIG. 5), 5 μg mitochondria or 1 mM pirfenidone, after 6 hours 2.5 ng/mL TGF-β
Experimental: In order to analyze the anti-fibrotic activity of stem cell-derived mitochondria, a cell-based analysis experiment was performed using a […].
CCD8-Lu cells, which are human lung-derived fibroblasts, were cultured in DMEM medium containing 10% FBS. Thereafter, the cells were inoculated into a 24 well plate at about 2×10^4 cells/well, cultured for 24 hours, and then reacted in DMEM medium without FBS for about 24 hours. After 24 hours, the cells were treated with TGF-β at a concentration of 2.5 ng/mL, and then fibrosis of the cells was induced for 6 hours. After 6 hours, the cells were washed twice with PBS to completely remove TGF-β. Next, the mitochondria isolated from umbilical cord blood mesenchymal stem cell UC-MSC, bone marrow mesenchymal stem cell BM-MSC, dedifferentiated stem cell iPSC and HEK293 cells obtained in Preparation Example 1 were mixed in DMEM medium, and the cells were treated with the mitochondria and then further cultured for 18 hours (FIG. 4). […]
Immunohistochemical analysis for each sample was performed as follows. […] The nucleus was stained using DAPI (4,6-diamidino-2-phenylindole), and analysis of differences in fluorescence intensity was performed using a fluorescence microscope.

Structure (SMILES)	expression of CTGF gene induced by TGF-β [1]	expression of NOX-4 gene induced by TGF-β [1]	expression of alpha actin smooth muscle (α-SMA) gene induced by TGF-β [1]	expression of CTGF gene induced by TGF-β [2]	expression of alpha actin smooth muscle (α-SMA) gene induced by TGF-β [2]	expression of CTGF protein induced by TGF-β [3]	expression of collagen 1A induced by TGF-β (fluorescence intensity) [4]	expression of fibronectin induced by TGF-β (fluorescence intensity) [4]
COC(=O)c1ccc2c(c1)NC(=O)/C2=C(\Nc1ccc(N(C)C(=O)CN2CCN(C)CC2)cc1)c1ccccc1 [nintedanib]	weakly inhibited or hardly inhibited	weakly inhibited or hardly inhibited	weakly inhibited or hardly inhibited	weakly inhibited or hardly inhibited	weakly inhibited or hardly inhibited	hardly inhibited	–	–
Cc1ccc(=O)n(-c2ccccc2)c1 [pirfenidone]	–	–	–	–	–	–	weakly inhibited or hardly inhibited	weakly inhibited or hardly inhibited

— patent US20230405052A1, “PHARMACEUTICAL COMPOSITION FOR PREVENTING OR TREATING FIBROSIS, COMPRISING ISOLATED MITOCHONDRIA” (Paean Biotechnology Inc., priority 2020, published 2023)
